Columns and labels:
[1] = tested on: K562 (Chronic Myeloid Leukemia); assay: Cellular growth inhibition assay (MTT), K562; format: cell-based; conditions: Homo sapiens, Table 1, 40 hr incubation
Experimental: (§1) For screening purposes, compounds were diluted in 96 well plates at a concentration of 20 μM. Plates were warmed at 37° C. for 30 minutes before assay.
(§2) K562 (Chronic Myeloid Leukemia), PC3 (Prostate Cancer), and DU145 (Prostate Cancer) were obtained from the American Type Culture Collection (ATCC). K562 was grown in RPMI, with 10% FBS with Glutamx added. DU145 cells were cultured in DMED, with 10% FBS and Glutamx and MEM non-essential amino acids added. PC3 cells were grown in F12K medium, with 10% FBS and Glutamx and MEM non-essential amino acids added. All cells were grown at 37° C. in 5% CO2.
(§3) Cell suspensions were prepared by harvesting cells from culture. (Cells used in this test should be in later log phase growth and high viability.) Cells were diluted in correct growth medium to 1.1× final concentration (from 50000 cell/mL to 200,000 cell/mL, depending on cell line).
(§4) Compounds to be tested were added (10 μL, 10× final concentration) to a flat bottom 96-well plate. The cellular suspension (90 μL per well) was added, and the plate incubated for 40 hr at 37° C., 5% CO2. MTT (20 μL per well, 5 mg/mL in PBS) was added and the plates were returned to the incubator for a further 6 hours. Lysis buffer (100 μL per well, 10% SDS, 0.01N HCl) was added and the plate stored in the incubator overnight. The plate was then read at 590 nm.

[2] = biological target: T1, TelJak2 (BaF3 TELJAK cells, TEL/Jak2 fusion) (Homo sapiens, UniProt O60674); assay: Cellular growth inhibition assay (MTT), BaF3 TEL:JAK2 cell line; format: cell-based
T1 construct: The regions encompassing the kinase domain of JAK2 (nucleotides 2994-3914); expressed in transfected cells; host or cells: BaF3 cells bearing the pTET-off plasmid, transfected with pTELJAK2 (pTRE2 vector); the other entry of the earlier key: ETV6 (P41212, Transcription factor ETV6)
Experimental: as §1
(§5) The coding region encompassing nucleotides 1-487 of TEL was amplified by PCR using the oligonucleotides 5TEL (5′-GGAGGATCCTGATCTCTCTCGCTGTGAGAC-3′) (SEQ ID NO: 1) and 3TEL (5′-AGGC GTCGACTTCTTCTTGATGGTTCTG-3′) (SEQ ID NO: 2) and U937 mRNA as template. A BamH I site was incorporated into the 5TEL primer, and a Sal I site was incorporated into the 3TEL primer. The regions encompassing the kinase domain of JAK2 (nucleotides 2994-3914; JAK2F 5′-ACGC GTCGACGGTGCCTTTGAAGACCGGGAT-3 (SEQ ID NO: 3); JAK2R 5′-ATAGTTTAGCGGCCGCTCAGAATGAAGGTCATTT-3′) (SEQ ID NO: 4) and JAK3 (nucleotides 2520-3469; JAK3F 5′-GAAGTCGACTATGCCTGCCAAGACCCCACGATCTT-3′ (SEQ ID NO: 5); JAK3R 5′-GGATCTAGACTATGAAAAGGACAGGGAGTGGTGTTT-3′ (SEQ ID NO: 6)) were generated by PCR using Taq DNA polymerase (Gibco/BRL) and U937 mRNA as template. A Sal I site was incorporated into the forward primer of JAK2 and JAK3, a Not I site was incorporated into the JAK2 reverse primer and a Xba I site was added to the reverse primer of JAK3.
(§6) A TEL/Jak2 fusion was generated by digestion of the TELPCR product with BamH I/Sa1 I, digestion of the JAK2 PCR product with Sa1 I/Not I followed by ligation and subcloning into the mammalian expression Vector pTRE 2 (Clontech) digested with BamH I-Not I (pTELJAK2). For JAK3 Sa1 I/Not I cleaved kinase domain PCR product was ligated with BamH I/Sa1 I cleaved TELproduct followed by ligation into BamH I/Not I cleaved pTRE2 (pTELJAK3).
(§7) The growth factor dependent myelomonocytic cell line BaF3 bearing the pTET-off plasmid (Clontech) was transfected with either pTELJAK2 or pTELJAK3 and the cells selected for factor independent growth. BaF 3 wild type cells were cultured in DMEM 10% FCS, 10% WEHI 3B conditioned medium. BaF3 TELJAK cells were cultured in DMEM 10% Tet-System Approved FBS (without WEHI 3B conditioned medium).
as §3, §4

DU145 (Prostate Cancer) = assay: Cellular growth inhibition assay (MTT), DU145; format: cell-based; conditions: Homo sapiens
Experimental: as §1, §2, §3, §4

[3] = biological target: T2, TelJak3 (BaF3 TELJAK cells, TEL/JAK3 fusion) (Homo sapiens, UniProt P52333); assay: Cellular growth inhibition assay (MTT), BaF3 TEL:JAK3 cell line; format: cell-based
T2 construct: For JAK3 Sa1 I/Not I cleaved kinase domain PCR product was ligated with BamH I/Sa1 I cleaved TELproduct; expressed in transfected cells; host or cells: BaF3 cells bearing the pTET-off plasmid, transfected with pTELJAK3 (pTRE2 vector); the other entry of the earlier key: ETV6 (P41212, Transcription factor ETV6)
Experimental: as §1, §5, §6, §7, §3, §4

PC3 (Prostate Cancer) = assay: Cellular growth inhibition assay (MTT), PC3; format: cell-based; conditions: Table 1, 40 hr incubation
Experimental: as §1, §2, §3, §4

[4] = tested on: Tubulin (microtubule protein); assay: Tubulin assay (turbidometric assay of microtubule assembly); format: biochemical; conditions: 50 μM, absorbance at 340 nm, 37° C.
Experimental: Turbidometric assays of microtubule assembly were performed by incubating microtubule protein in cuvettes at 37° C. in a thermostatically controlled spectrophotometer measuring the change in absorbance at 340 nm over time. The microtubule protein was incubated with the each test compound at 0° C. and polymerisation was initiated by addition of 1 mM GTP, prior to heating to 37° C.

[5] = DU-145, Table 1, 40 hr incubation
[6] = DU-145, Table 2, 40 hr incubation

T2 sequence (P52333 with tags, fused parts or gaps): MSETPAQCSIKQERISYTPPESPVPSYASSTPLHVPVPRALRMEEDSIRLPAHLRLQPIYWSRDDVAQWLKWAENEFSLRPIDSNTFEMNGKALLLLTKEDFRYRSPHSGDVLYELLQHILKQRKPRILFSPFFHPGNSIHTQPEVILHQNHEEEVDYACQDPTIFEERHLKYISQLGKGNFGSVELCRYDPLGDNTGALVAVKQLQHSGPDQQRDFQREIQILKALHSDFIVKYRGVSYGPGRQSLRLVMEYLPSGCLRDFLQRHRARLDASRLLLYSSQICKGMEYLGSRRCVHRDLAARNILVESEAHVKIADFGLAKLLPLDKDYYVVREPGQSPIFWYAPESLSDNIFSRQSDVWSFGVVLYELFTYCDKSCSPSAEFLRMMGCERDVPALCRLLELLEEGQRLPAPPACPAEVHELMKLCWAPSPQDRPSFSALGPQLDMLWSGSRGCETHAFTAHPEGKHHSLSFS
T1 sequence (O60674 with tags, fused parts or gaps): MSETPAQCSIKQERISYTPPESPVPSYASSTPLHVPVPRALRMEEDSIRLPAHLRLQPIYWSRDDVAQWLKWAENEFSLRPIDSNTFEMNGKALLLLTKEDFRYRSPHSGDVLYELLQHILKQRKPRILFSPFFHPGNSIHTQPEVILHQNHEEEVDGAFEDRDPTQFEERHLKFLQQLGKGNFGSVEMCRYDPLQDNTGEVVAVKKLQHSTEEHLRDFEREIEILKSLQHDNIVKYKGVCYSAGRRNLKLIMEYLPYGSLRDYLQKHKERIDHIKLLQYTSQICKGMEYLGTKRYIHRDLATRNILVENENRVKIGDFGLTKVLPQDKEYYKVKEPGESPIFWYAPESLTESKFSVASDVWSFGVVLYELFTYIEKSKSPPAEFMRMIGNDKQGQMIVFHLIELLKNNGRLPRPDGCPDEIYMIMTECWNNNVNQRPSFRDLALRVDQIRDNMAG

Structure (SMILES)	inhibition at 20 µM [1] [%]	inhibition at 20 µM ([2]; Table 1, 40 hr incubation) [%]	inhibition at 20 µM (DU145 (Prostate Cancer); [5]) [%]	inhibition at 20 µM ([3]; Table 1, 40 hr incubation) [%]	inhibition at 20 µM (PC3 (Prostate Cancer)) [%]	Tubulin inhibition of tubulin polymerisation ([4]; Table 1)	inhibition at 20 µM ([2]; Table 2, 40 hr incubation) [%]	inhibition at 20 µM (DU145 (Prostate Cancer); [6]) [%]	inhibition at 20 µM ([3]; Table 2, 40 hr incubation) [%]	Tubulin inhibition of tubulin polymerisation ([4]; Table 2)
CCCC(Nc1cncc(-c2ccc(OCCCO)c(OC)c2)n1)c1ccccc1 (stereo not drawn)	> 50	> 50	> 50	> 50	> 50	+ (compounds which inhibited tubulin polymerisation by greater than 50% at 50 μM)				
CCCC(Nc1cncc(-c2ccc(NC(=O)NCC)c(C)c2)n1)c1cccnc1 (stereo not drawn)	> 50	> 50	> 50	> 50	> 50	+ (compounds which inhibited tubulin polymerisation by greater than 50% at 50 μM)				
CCCC(Nc1cncc(-c2ccc(NC(=O)NCCCN3CCOCC3)c(OC)c2)n1)c1cccnc1 (stereo not drawn)	> 50	> 50	> 50	> 50	> 50	+ (compounds which inhibited tubulin polymerisation by greater than 50% at 50 μM)				
CCCC(Nc1cncc(-c2ccc(NC(=O)NCCN(C)C)c(OC)c2)n1)c1cccnc1 (stereo not drawn)	> 50	> 50	> 50	> 50	> 50	+ (compounds which inhibited tubulin polymerisation by greater than 50% at 50 μM)				
CCCC(Nc1cncc(-c2ccc(NC(=O)NCC)c(CC)c2)n1)c1cccnc1 (stereo not drawn)	> 50	> 50	> 50	> 50	> 50	+ (compounds which inhibited tubulin polymerisation by greater than 50% at 50 μM)				
CCCC(Nc1cncc(-c2ccc(NC(=O)NCC)c(OC)c2)n1)c1cncc(C)c1 (stereo not drawn)	> 50	> 50	> 50	> 50	> 50	+ (compounds which inhibited tubulin polymerisation by greater than 50% at 50 μM)				
CCC[C@H](Nc1cncc(-c2ccc(NC(=O)NCC)c(OC)c2)n1)c1cccnc1	> 50	> 50	> 50	> 50	> 50	+ (compounds which inhibited tubulin polymerisation by greater than 50% at 50 μM)				
CCC[C@H](Nc1cncc(-c2ccc(NC(=O)NCC)c(C)c2)n1)c1cccnc1	> 50	> 50	> 50	> 50	> 50	+ (compounds which inhibited tubulin polymerisation by greater than 50% at 50 μM)				
CCCC(Nc1cncc(-c2ccc(NC(=O)NCC)c(C)c2)n1)c1ccccn1 (stereo not drawn)	> 50	> 50	> 50	> 50	> 50	+ (compounds which inhibited tubulin polymerisation by greater than 50% at 50 μM)				
CCCC(Nc1cncc(-c2ccc(NC(=O)NCC)c(OC)c2)n1)c1ccccn1 (stereo not drawn)	> 50	> 50	> 50	> 50	> 50	+ (compounds which inhibited tubulin polymerisation by greater than 50% at 50 μM)				
CCCC(Nc1cncc(-c2ccc(NC(=O)NCC)c(OC)c2)n1)c1cnccc1C (stereo not drawn)	> 50	> 50	> 50	> 50	> 50	+ (compounds which inhibited tubulin polymerisation by greater than 50% at 50 μM)				
CCCC(Nc1cncc(-c2ccc(NC(=O)NCC)c(C)c2)n1)c1cnccc1C (stereo not drawn)	> 50	> 50	> 50	> 50	> 50	+ (compounds which inhibited tubulin polymerisation by greater than 50% at 50 μM)				
COc1cc(-c2cncc(NC(C)c3ccc(-c4cccnc4)cc3)n2)ccc1O (stereo not drawn)							> 50	> 50	> 50	+ (compounds which inhibited tubulin polymerisation by greater than 50% at 50 μM)
COc1cc(-c2cncc(NC(C)c3cccc(NC(=O)[C@H]4CCCN4)c3)n2)ccc1O (stereo partly drawn)							> 50	> 50	> 50	+ (compounds which inhibited tubulin polymerisation by greater than 50% at 50 μM)
COc1cc(-c2cncc(NC(C)c3cccc(NC(=O)c4cccnc4)c3)n2)ccc1O (stereo not drawn) [drawing 127]							> 50	> 50	> 50	+ (compounds which inhibited tubulin polymerisation by greater than 50% at 50 μM)
